# Results from patent publication US5283193A, “Process for producing optically active α-substituted organic acid and microorganism and enzyme used therefor” (Asahi Kasei Kogyo K.K., priority 1988, dated 1994).
# System: Nitrilase isolated from Acinetobacter sp. AK 226 strain
# Experiment: Substrate specificity of purified nitrilase (hydrolysis of nitriles to organic acid and ammonia)
# Details: not given
row,Molecule,Relative activity
1,N#Cc1cccnc1 [Nicotinonitrile],52.7 ×10^2%
2,Cc1ccccc1C#N [o-Tolunitrile],0.743 ×10^2%
3,N#Cc1cccc(C#N)c1 [m-Phthalonitrile],80.7 ×10^2%
4,N#CCO [Hydroxyacetonitrile],11.4 ×10^2%
5,C=CC#N [Acrylonitrile],144 ×10^2%
6,N#CCCl [Chloroacetonitrile],108 ×10^2%
7,"N#CC(Br)CBr (stereo not shown) [2,3-Dibromopropionitrile]",90.3 ×10^2%
8,CC(C#N)c1ccccc1 (stereo not drawn) [α-Phenylpropionitrile],0.534 ×10^2%
9,N#Cc1cccc([N+](=O)[O-])c1 [m-Nitrobenzonitrile],47.6 ×10^2%
10,N#Cc1ccccc1F [o-Fluorobenzonitrile],50.4 ×10^2%
11,Thiopheneacetonitrile,45.5 ×10^2%
12,N#Cc1cccc(Cl)c1 [m-Chlorobenzonitrile],68.9 ×10^2%
13,N#CCCCC#N [Glutaronitrile],50.9 ×10^2%
14,CCCC#N [n-Butyronitrile],17.4 ×10^2%
15,CC#N [Acetonitrile],45.3 ×10^2%
16,N#CC(N)c1ccccc1 (stereo not shown) [2-Phenylglycinonitrile],0.000 ×10^2%
17,CC(C)CCC#N [iso-Capronitrile],8.12 ×10^2%
18,C=C(C)C#N [Methacrylonitrile],68.4 ×10^2%
19,Cc1cccc(C#N)c1 [m-Tolunitrile],74.8 ×10^2%
20,N#Cc1ccc(F)cc1 [p-Fluorobenzonitrile],83.9 ×10^2%
21,CCCCCC#N [n-Capronitrile],5.93 ×10^2%

# Same assay, conditions: racemic substrate
row,Molecule,Reaction rate with the S isomer compared with the R isomer
1,CC(C)Cc1ccc(C(C)C#N)cc1 (stereo not shown),much higher
